Assay results from patent US10993938B2 (priority 2017, dated 2021).

Assays:
RSV = experiment: Virus inhibition activity assay based on cytopathic effects (neutral red), RSV; assay type: cell-based; conditions: human respiratory syncytial virus, read-out: RSV (EC50) μM
EV71 = experiment: Virus inhibition activity assay based on cytopathic effects (neutral red), EV71; assay type: cell-based; conditions: Enterovirus A, EV71, read-out: EV71 (EC50) μM
[1] = 50% toxic concentration on cell (TC50), neutral red
CoxB3 = experiment: Virus inhibition activity assay based on cytopathic effects (neutral red), CoxB3; assay type: cell-based; conditions: read-out: CoxB3 (EC50) μM
HSV = experiment: Virus inhibition activity assay based on cytopathic effects (neutral red), HSV; assay type: cell-based; conditions: read-out: HSV (EC50) μM
HIV = experiment: microbe, parasite or virus in culture; assay type: cell-based; conditions: Human immunodeficiency virus 1, read-out: HIV (EC50) μM
H7N9 = experiment: microbe, parasite or virus in culture; assay type: cell-based; conditions: Influenza A virus, H7N9, read-out: H7N9 (EC50) μM
H1N1 = experiment: microbe, parasite or virus in culture; assay type: cell-based; conditions: Influenza A virus, H1N1, read-out: H1N1 (EC50) μM

Structure (SMILES): COC1C(=O)N(Cc2ccccc2)c2ccc(Cl)cc2C1(O)c1ccccc1 (centres unmarked) [Example 29]
- EC50 (RSV): 0.05 to 5 µM
- EC50 (EV71): 5 to 50 µM
- CC50 [1]: 50 to 100 µM
- EC50 (CoxB3): 0.05 to 5 µM
- EC50 (HSV): 50 to 120 µM
- EC50 (HIV): 0.05 to 5 µM
- EC50 (H7N9): 0.05 to 5 µM
- EC50 (H1N1): 5 to 50 µM
